Results: patent publication US7674580B2, “Compositions and methods for the modulation of sphingolipid metabolism and/or signaling” (priority 2002, dated 2010)
Marks after values point to notes of the source that are not given here.

Assays:
[1] = tested on: Sply^05091 homozygous flies; assay: LCB/LCBP levels in Sply^05091 homozygous flies grown on sphingosine kinase inhibitor (HPLC); format: in vivo, Drosophila melanogaster
Experimental: (§1) Analysis of Drosophila sphingolipids: 100 mg of flies were homogenized in 6 ml of ice cold methanol/water 1:1 (vol:vol) with a Potter-Elvehjem homogenizer with a loose pestle followed by a tight pestle until the pestle moved smoothly. Extract was further homogenized by tip sonication for 3 times 20 sec. Extract was spun at low speed and supernatant was removed and dried down in speed vac. Extract was resuspended in 500 μl of methanol containing 0.1M ammonium hydroxide and incubated for 1 hour at 37° C. Following incubation the extract was dried down in speed vac. Extract was resuspended in 500 μl of 50% methanol containing 0.1% glacial acetic acid and applied to a C18E STRATA solid phase extraction column. C18E STRATA column was washed with 50% methanol containing 0.1% glacial acetic acid followed by a wash with 100% methanol containing 0.1% glacial acetic acid. Lipids of interest were eluted with methanol/10 mM ammonium acetate, 9:1 (vol:vol). Lipids were dried down in speed vac. and o-pthaladehyde labeled for HPLC analysis as previously described (Kim, S., Fyrst, H. and Saba, J. (2000). Genetics 156, 1519-29.).

[2] = tested on: Sply^05091 homozygous flies; assay: Adult flight performance of Sply^05091 homozygous flies grown on sphingosine kinase inhibitor; format: in vivo, Drosophila melanogaster
wild type flies = assay: LCBP levels in wild type flies grown on sphingosine kinase inhibitor; format: in vivo, Drosophila melanogaster; settings: wild type flies grown on D,L-threo-DHS
Experimental: as §1

bst1Δ cells = assay: Sphingosine sensitivity (growth) of SPL-deleted yeast; format: cell-based, S. cerevisiae
Source text: Within certain embodiments, an in vitro assay for SPL activity may be performed using cellular extracts prepared from cells that express the polypeptide of interest. […] It has been found, within the context of the present invention, that yeast cells containing deletion of the SPL gene (BST1) are suitable for use in evaluating the SPL activity of a polypeptide. bst1Δ cells can be generated from S. cerevisiae using standard techniques, such as PCR, as described herein. […] For such a test, a polypeptide is preferably expressed on a high-copy yeast vector (such as pYES2, which is available from Invitrogen) yielding more than 20 copies of the gene per cell. In general, a polypeptide has SPL activity if, when expressed using such a vector in a bst1Δ cell, a cellular extract results in a two-fold increase in substrate degradation over the level observed for an extract prepared from cells not expressing the polypeptide.
(§2) A further test for SPL activity may be based upon functional complementation in the bst1Δ strain. It has been found, within the context of the present invention, that bst1Δ cells are highly sensitive to D-erythro-sphingosine.
Functional complementation in yeast: Strains of interest were grown to saturation in liquid culture for 2-3 days. […] Plates were incubated at 30° C. for two days and assessed visually for differences in growth.

wildtype cells = assay: Sphingosine sensitivity (growth) of wildtype yeast; format: cell-based, S. cerevisiae; settings: 10 μM sphingosine
Experimental: as §2
Functional complementation in yeast: Strains of interest were grown to saturation in liquid culture for 2-3 days. They were then resuspended in minimal medium, placed in the first row of a 96-well plate and diluted serially from 1:2 to 1:4000 across the plate. […] Louis, Mo.). […] At this concentration of NP40, no effects on cell viability are observed. Plates were incubated at 30° C. for two days and assessed visually for differences in growth.

[3] = Sply^05091 homozygous flies + 1 mM D,L-threo-DHS, separate experiment, mixed-age adults

| Reduction of LCBP levels ([1]; Sply^05091 homozygotes grown in the presence of sphingosine kinase inhibitor) | C14/16 LCBPs, percentage of untreated controls [1, 3] [%*] | C14/16 LCBs, percentage of untreated controls [1, 3] [%*] | LCBP levels, % of normal levels (wild type flies) [%] | SMILES | Average flight score ([2]; Sply^05091 + 1 mM D,L-threo-DHS, score upward=3, lateral=2, downward=1, flightless=0, ±s.e.m., untreated Sply^05091 0.40 ± 0.036) | Flight performance ([2]; Sply^05091 mutants grown on media supplemented with 10 μM D,L-threo-DHS, F2 progeny) | Growth of bst1Δ cells (bst1Δ cells; concentrations as low as 10 μM sphingosine) | Proliferation of dpl1Δ strain (bst1Δ cells; media containing low concentrations of D-erythro-sphingosine) | Growth of wildtype cells (wildtype cells) |
| --- | --- | --- | --- | --- | --- | --- | --- | --- | --- |
| approximately 20% | 81 | 136 | 20 | CCCCCCCCCCCCCCC[C@H](O)[C@@H](N)CO [D,L-threo-DHS, D,L-threo-dihydrosphingosine] | 0.62 ± 0.057 | slight but significant improvement in flight performance | – | – | – |
| – | – | – | – | CCCCCCCCCCCCC/C=C/[C@@H](O)[C@@H](N)CO [D-erythro-sphingosine] | – | – | completely inhibit the growth | cannot proliferate | no effect on the growth |
